molecular target: T1, fatty acyl CoA: cholesterol acyl transferase (ACAT) (Rattus norvegicus, UniProt O70536); experiment: Inhibition of enzymatic esterification of cholesterol (ACAT) in rat adrenal supernatant containing the microsomal fraction; type: biochemical; conditions: final concentration of test compound 5.2 μg./ml., percent inhibition of the ACAT enzyme compared to control values
T1 construct: The supernatant, containing the microsomal fraction, served as the source of the cholesterol-esterifying enzyme; from tissue; host or cells: rat adrenals (1,000 x g supernatant containing the microsomal fraction)
T1 sequence (O70536 1-545): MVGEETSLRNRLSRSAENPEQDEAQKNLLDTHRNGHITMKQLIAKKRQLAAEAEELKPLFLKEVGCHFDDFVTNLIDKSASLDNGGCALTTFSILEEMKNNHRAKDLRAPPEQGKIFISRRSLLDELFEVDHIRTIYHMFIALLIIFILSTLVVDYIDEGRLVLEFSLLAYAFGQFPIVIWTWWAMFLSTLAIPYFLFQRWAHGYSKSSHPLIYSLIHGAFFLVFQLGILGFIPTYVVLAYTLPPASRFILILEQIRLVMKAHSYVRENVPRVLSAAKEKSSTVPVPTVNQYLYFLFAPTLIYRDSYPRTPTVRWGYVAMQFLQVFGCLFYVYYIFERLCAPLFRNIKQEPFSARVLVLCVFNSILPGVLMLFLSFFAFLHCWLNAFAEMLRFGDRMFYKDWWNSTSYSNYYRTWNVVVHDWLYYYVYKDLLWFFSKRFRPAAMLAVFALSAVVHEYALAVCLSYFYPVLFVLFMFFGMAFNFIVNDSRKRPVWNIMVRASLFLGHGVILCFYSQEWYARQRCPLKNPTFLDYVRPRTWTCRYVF
Description: The compounds of the present invention were tested for their ability to inhibit the enzymatic esterification of cholesterol according to the following procedure:
Rat adrenals were homogenized in 0.2M monobasic potassium phosphate buffer, pH 7.4, and centrifuged at 1,000 times gravity for 15 minutes at 5° C. The supernatant, containing the microsomal fraction, served as the source of the cholesterol-esterifying enzyme, fatty acyl CoA: cholesterol acyl transferase (ACAT). A mixture comprising 50 parts of adrenal supernatant, 10 parts of albumin (BSA) (50 mg./ml.), […], 3 parts of test compound, and 500 parts of buffer was pre-incubated at 37° C. for 10 minutes. After treatment with 20 parts of oleoyl CoA (^14 C-0.4 μCi), the mixture was incubated at 37° C. for 10 minutes. A control mixture, omitting the test compound, was prepared and treated in the same manner. The lipids from the incubation mixture were extracted into an organic solvent and separated by thin-layer chromatography. The cholesterol ester fraction was counted in a scintillation counter. This procedure is a modification of that described by Hashimoto, et al., Life Scie., 12 (Part II), 1-12 (1973).
The results of this test on representative compounds of this invention appear in Table I. The final concentration of the test compound was 5.2 μg./ml., and the effectiveness of the compound is expressed as percent inhibition of the ACAT enzyme compared to control values.

Going from `COc1ccc(C(CC(=O)Nc2ccc(C#N)cc2)c2ccc(OC)cc2)cc1` [N--(p-Cyanophenyl)-3,3-bis(4-methoxyphenyl)propionamide] to `COc1ccc(C(CC(=O)Nc2ccc(F)cc2)c2ccc(OC)cc2)cc1` [N--(p-Fluorophenyl)-3,3-bis(4-methoxyphenyl)propionamide], the inhibition at 5.2 µg/mL falls from 94% to 92%.

First: O=C(CCCCCc1ccc(Cl)cc1)Nc1ccc(C(=O)O)cc1 [4-(p-Chlorophenyl)hexanamidobenzoic acid, 4-[6-(p-Chlorophenyl)hexanamido]benzoic acid]
Second: CCOC(=O)c1ccc(NC(=O)CCCCCc2ccc(Cl)cc2)cc1 [4-[6-(p-Chlorophenyl)hexanamido]benzoic acid, ethyl ester]
The inhibition at 5.2 µg/mL of the first is lower: 18% for the first, 42% for the second.

Going from `CCOC(=O)c1ccc(NC(=O)CCc2ccc(C)cc2)cc1` [4-(p-Methylhydrocinnamamido)benzoic acid, ethyl ester] to `CCOC(=O)c1ccc(NC(=O)CCc2ccc(OC)cc2)cc1` [4-(p-Methoxyhydrocinnamamido)benzoic acid, ethyl ester], the inhibition at 5.2 µg/mL rises from 25% to 28%.

Compared with `O=C(C=C(c1ccc(Br)cc1)c1ccc(Br)cc1)Nc1ccc(C(=O)O)cc1` [4-[3,3-Bis(p-bromophenyl)acrylamido]benzoic acid], `CCOC(=O)c1ccc(NC(=O)C=C(c2ccc(Br)cc2)c2ccc(Br)cc2)cc1` [4-[3,3-Bis(p-bromophenyl)acrylamido]benzoic acid, ethyl ester] is higher in inhibition at 5.2 µg/mL: 90% for the first, 96% for the second.

First: CCOC(=O)c1ccc(NC(=O)C=C(c2ccccc2)c2ccc(Cl)cc2)cc1 [4-(p-Chloro-β-phenylcinnamamido)benzoic acid, ethyl ester]
Second: CCOC(=O)c1ccc(NC(=O)C=C(c2ccccc2)c2ccc(C)cc2)cc1 [4-(p-Methyl-β-phenylcinnamamido)benzoic acid, ethyl ester]
The inhibition at 5.2 µg/mL of the first is higher: 92% for the first, 88% for the second.

First: Cc1ccc(C(=CC(=O)Nc2ccc(C(=O)O)cc2)c2ccc(C)cc2)cc1 [4-[3,3-Di-(p-tolyl)acrylamido]benzoic acid]
Second: CCOC(=O)c1ccc(NC(=O)C=C(c2ccc(Cl)cc2)c2ccc(Cl)cc2)cc1 [4-[3,3-Bis(p-chlorophenyl)acrylamido]benzoic acid, ethyl ester]
The inhibition at 5.2 µg/mL of the first is lower: 89% for the first, 93% for the second.

First: CCOC(=O)c1ccc(NC(=O)C(c2ccc(Cl)cc2)c2ccc(Cl)cc2)cc1 [4-[2,2-Bis(p-chlorophenyl)acetamido]benzoic acid, ethyl ester]
Second: O=C(CC(c1ccc(Cl)cc1)c1ccc(Cl)cc1)Nc1ccccc1 [N--Phenyl-3,3-bis(p-chlorophenyl)propionamide]
The inhibition at 5.2 µg/mL of the first is higher: 86% for the first, 50% for the second.

Compared with `Cc1ccc(C(CC(=O)Nc2ccc(F)cc2)c2ccc(C)cc2)cc1` [N--(p-Fluorophenyl)-3,3-bis(p-tolyl)propionamide], `Cc1ccc(C(CC(=O)Nc2ccc(C(F)(F)F)cc2)c2ccc(C)cc2)cc1` [N--(p-Trifluoromethylphenyl)-3,3-bis(p-tolyl)propionamide] is higher in inhibition at 5.2 µg/mL: 92% for the first, 94% for the second.

First: COc1ccc(C(CC(=O)Nc2ccccc2)c2ccc(OC)cc2)cc1 [N--Phenyl-3,3-bis(4-methoxyphenyl)propionamide]
Second: COc1ccc(C(CC(=O)Nc2ccc(C)cc2)c2ccc(OC)cc2)cc1 [N--(p-Tolyl)-3,3-bis(4-methoxyphenyl)propionamide]
The inhibition at 5.2 µg/mL of the first is lower: 91% for the first, 97% for the second.

Going from `O=C(C=C(c1ccc(Cl)cc1)c1ccc(Cl)cc1)Nc1ccccc1C(=O)O` [2-[3,3-Bis(p-chlorophenyl)acrylamido]benzoic acid] to `CCOC(=O)c1ccc(NC(=O)C=C(C)c2ccc(Cl)c(Cl)c2)cc1` [4-(3,4-Dichlorophenyl-β-methylacrylamido)benzoic acid, ethyl ester], the inhibition at 5.2 µg/mL rises from 32% to 74%.

`Cc1ccc(C(CC(=O)Nc2ccccc2)c2ccc(C)cc2)cc1` [N--Phenyl-3,3-bis(p-tolyl)propionamide] and `COc1ccc(C(CC(=O)Nc2ccc(C(C)=O)cc2)c2ccc(OC)cc2)cc1` [4'-[3,3-Bis(4-methoxyphenyl)propionamido]acetophenone] are the same in inhibition at 5.2 µg/mL: 82% for the first, 82% for the second.

Reference: US4536346A, “Aralkanamidophenyl compounds” (American Cyanamid Company, priority 1983, dated 1985)
